From patent publication US11596643B2 (Sichuan Yingrui Pharmaceutical Technology Company, priority 2019, dated 2023) come the findings set out here.

≈ marks a conversion by molar mass, not a printed value.

Data set [1] can be described thus: Body weight and death of tumor-bearing mice in the in-vivo pharmacodynamic test. On the procedure: (§1) In-vivo pharmacodynamic test: H22 liver cancer cells, 4T1 breast cancer cells, EMT6 breast cancer cells and HT-29 colon cancer cells that were growing at logarithmic phase were collected, and the concentration of the cell suspension was adjusted to 3×10^7 cells/mL. The cells were subcutaneously inoculated into right upper extremity of Balb/c mice or nude mice with 0.1 mL per mouse (containing about 3×10^6 cells). After the average tumor volume of the inoculated mice was reached 100 mm^3, the tumor-bearing mice were randomly divided into a negative control group (with 0.9% sodium chloride injection), an adriamycin control group (5 mg/kg) and a pectin-adriamycin experimental group (the equivalent of adriamycin being 5 mg/kg) respectively, 8 mice for each group, the above various drugs were intravenously injected for 4 times in total. The tumor volume change and the body weights were recorded, and the equation for volume calculation was as follows: volume=(length×width^2)/2.

Data set [2] has as its system 4T1 breast cancer. Description: In-vivo pharmacodynamic test, tumor-bearing mice. Conditions: 4T1 breast cancer tumor-bearing mice, 5 mg/kg adriamycin equivalent, intravenously injected 4 times. The method, then: as §1
A further data set concerns EMT-6 breast cancer. Description: In-vivo pharmacodynamic test, tumor-bearing mice. The settings on record: EMT-6 breast cancer tumor-bearing mice, 5 mg/kg adriamycin equivalent, intravenously injected 4 times. The method, then: as §1
Data set [3] concerns H22 liver cancer. Description: In-vivo pharmacodynamic test, tumor-bearing mice. The settings on record: 5 mg/kg adriamycin equivalent, intravenously injected 4 times. The method, then:
as §1

In data set [4] the test system is MCF-7 breast cancer cells. Description: In-vitro cytotoxicity test (CCK-8). It counts as cell-based. The method, then: (§2) In-vitro cytotoxicity test: HT-29 colon cancer cells, HepG-2 liver cancer cells, SMMC7721 liver cancer cells, SKOV3 ovarian cancer cells and MCF-7 breast cancer cells that were growing at the logarithmic phase were collected. The concentration of cell suspension was adjusted, and 100 uL of the cell suspension was added per well, then the cells were plated so that the density of cells to be tested was 4000 cells/well (the marginal wells being filled with a sterile PBS). Incubation was performed for 24 hours at 5% CO2 and 37° C. Then the medium was discarded, and pectin-adriamycin or adriamycin with a concentration gradient (containing 0.125, 0.25, 0.5, 1.0, 2.0, 4.0, 8.0 and 16.0 ug/mL of […]) was added, and three repetitions were set for each concentration. Then incubation was performed for 48 hours in an incubator at 5% CO2 and 37° C. 10 μl of a CCK-8 solution was added to each well to continue cultivation for 2 hours. The absorbance of each well at 450 nm was measured with an Enzyme-labelled meter, and IC50 values of pectin-adriamycin and adriamycin for various cancer cells were calculated.

For a further data set, the system named is HT-29 colon cancer cells. Description: In-vitro cytotoxicity test (CCK-8). The format is cell-based. On the procedure: as §2
The test system of data set [5] is SKOV3 ovarian cancer cells. Description: In-vitro cytotoxicity test (CCK-8). The format is cell-based. On the procedure: as §2
Data set [6] concerns HepG-2 liver cancer cells. Description: In-vitro cytotoxicity test (CCK-8). It counts as cell-based. On the procedure:
as §2

The test system of data set [7] is SMMC7721 liver cancer cells. Description: In-vitro cytotoxicity test (CCK-8). The format is cell-based. On the procedure:
as §2

Data set [8] concerns 4T1 breast cancer. Description: Comparison with the control compound, 4T1 breast cancer mice tumor model. It counts as in vivo.
The subject of a further data set is HT-29 colon cancer. Description: In-vivo pharmacodynamic test, tumor-bearing mice. Conditions: HT-29 colon cancer tumor-bearing mice, 5 mg/kg adriamycin equivalent, intravenously injected 4 times. On the procedure: as §1
A short description of the next data set: Solubility in water. It counts as physicochemical.
Data set [9] relates to H22 liver cancer. Description: Comparison with the control compound, H22 liver cancer mice tumor model. The format is in vivo.
The mark [10] stands for this setting: tumor-bearing mice, 5 mg/kg adriamycin equivalent, i.v. 4 times.
Setting [11] is: Example 16, conjugate intravenous, control intraperitoneal.

`COc1cccc2c1C(=O)c1c(O)c3c(c(O)c1C2=O)C[C@@](O)(C(=O)CO)C[C@@H]3O[C@H]1C[C@H](N)[C@H](O)[C@H](C)O1` [adriamycin, reference compound]: the body weight decrease entry in data set [1] (mouse, in vivo, iv, 5 mg/kg) is “more than 15%”. The “body weights of the mice” value in [1] (mouse, in vivo, iv, 5 mg/kg) was “significantly decreased”. For the same molecule, the death of mice result in [1] (setting [10]) is “minormice died”. Also, the “tumor growth inhibition rate” value was 50.61% with 4T1 breast cancer [2], 56.95% in the data set on EMT-6 breast cancer and 53.42% in the data set with H22 liver cancer [3]. The IC50 in data set [4] (Homo sapiens, MCF7, 48 hours incubation) was found to be 3.97 µg/mL (≈ 7.3 µM); in the data set on HT-29 colon cancer cells (Homo sapiens, HT-29, 48 hours incubation) it was 10.9 µg/mL (≈ 20.1 µM); in data set [5] (Homo sapiens, SK-OV-3, 48 hours incubation), 5.7 µg/mL (≈ 10.5 µM); in data set [6] (Homo sapiens, HepG2, 48 hours incubation) it was 4.38 µg/mL (≈ 8.05 µM); in [7] (Homo sapiens, SMMC-7721, 48 hours incubation), 2.62 µg/mL (≈ 4.82 µM).

Consider “modified pectin-PEG8-VAPABC-adriamycin [pectin-adriamycin conjugate]”, for which the results for the tumor inhibition rate in the data set with 4T1 breast cancer [8] (setting [11]) and in the data set on H22 liver cancer [9] (setting [11]) were 76.20% and 70.83%, respectively. The inhibition time entry in the data set on 4T1 breast cancer [8] (same dosage, versus control compound (FIG. 9)) is recorded as “longer”; in the data set with H22 liver cancer [9] (same dosage, versus control compound (FIG. 8)) it was “longer”. Besides, the “body weights of the mice” value in data set [1] (setting [10]) is given as “not significantly decreased”. In addition, in data set [1] (setting [10]), the death of mice entry was “no a mouse died”. Also, the results for the “tumor growth inhibition rate” value in the data set with 4T1 breast cancer [2], in the data set on EMT-6 breast cancer and in the data set with H22 liver cancer [3] were 78.1%, 71.68% and 72.98%, respectively. Also, the curative effect result with HT-29 colon cancer is reported as “better than that of the adriamycin control”. Also, the Solubility in water in “Solubility in water” is reported as 10 mg/ml, solubility being. Besides, in data set [4] (48 hours incubation), the “IC50, MCF-7 breast cancer” value stood at 3.961 µg/mL. For the same molecule, in the data set with HT-29 colon cancer cells (48 hours incubation), the “IC50, HT-29 colon cancer” value stood at 10.74 µg/mL. Also, the “IC50, SKOV3 ovarian cancer” value in data set [5] (48 hours incubation) was found to be 5.488 µg/mL. For the same molecule, in data set [6] (48 hours incubation), the “IC50, HepG-2 liver cancer” value came to 4.11 µg/mL. Further, the “IC50, SMMC7721 liver cancer” value in data set [7] (48 hours incubation) is 2.31 µg/mL.

As a reminder, the IC50 is the concentration at which inhibition is half-maximal. Read a low IC50 as inhibition by little substance.
